# Test: Survival of beagle dogs during the dCF bioavailability study
# Type: in vivo
# Details: four female beagle dogs, 0.25 mg/kg IV or 1.25-5.0 mg/kg PO for 2 days
# Description: Four female beagle dogs were assigned to this study.
structure (smiles),measurement,value
"OC[C@H]1O[C@@H](n2cnc3c2NC=NC[C@H]3O)C[C@@H]1O [dCF, 2'-deoxycoformycin]",mortality during the course of the study,None of the dogs died

# — patent US6174873A, “Oral administration of adenosine analogs” (SuperGen, Inc., priority 1998, dated 2001)
